Measured values published in US20250059208A1, “KRAS MODULATING COMPOUNDS” (priority 2023, published 2025).

Key:
[1] = biological target: GDP-loaded wild-type KRAS (WT) (Homo sapiens, UniProt P01116); assay: KRAS (GDP) biochemical TR-FRET probe displacement assay, WT; assay type: binding; conditions: 2 hours at room temperature
Experimental: (§1) • Compounds were tested for binding to GDP-loaded wild-type KRAS (WT), KRAS-G12C, KRAS-G12D, and KRAS-G12V in a 384-well assay format using a TR-FRET probe displacement assay in buffer consisting of 50 mM Hepes (pH 7.4), 150 mM NaCl. 5 mM MgCl2 and 0.005% Tween-20. 0.03 nM KRAS was used in this assay with 0.02 nM Eu-streptavidin and 12 nM Cy-5 labelled probe. Compounds were serially diluted (1:3) in DMSO. The LabCyte ECHO Acoustic dispenser was used to pre-spot the assay plates (384-well Non-Binding Surface plates, Corning, Catalog #3824) with 50 nL of compound. 5 μL of 2× enzyme concentration was added to the pre-spotted plates and incubated for 30 minutes before adding 5 μL of 2× concentration of Eu-streptavidin and Cy-5 labelled probe (10 μL final reaction volume). The plates were incubated at room temperature for 2 hours before measuring TR-FRET ratio (665 nm/615 nm) on the Envision multimode plate reader. The ratios were normalized to a positive (saturating concentration of known inhibitor) and negative (DMSO) control and plotted against the log of compound concentration. […]

GDP-loaded KRAS-G12C = GDP-loaded KRAS-G12C (Homo sapiens, UniProt P01116, G12C); assay: KRAS (GDP) biochemical TR-FRET probe displacement assay, G12C; assay type: binding; conditions: 2 hours at room temperature
Experimental: as §1

GDP-loaded KRAS-G12V = GDP-loaded KRAS-G12V (Homo sapiens, UniProt P01116, G12V); assay: KRAS (GDP) biochemical TR-FRET probe displacement assay, G12V; assay type: binding; conditions: 2 hours at room temperature
Experimental: as §1

GDP-loaded KRAS-G12D = GDP-loaded KRAS-G12D (Homo sapiens, UniProt P01116, G12D); assay: KRAS (GDP) biochemical TR-FRET probe displacement assay, G12D; assay type: binding; conditions: 2 hours at room temperature
Experimental: as §1

[2] = system: cellular pERK in Kuramochi (WT KRAS) cell-line; assay: Cell based pERK assay, Kuramochi; conditions: 2 h, Kuramochi (WT KRAS) cells, 2 hours compound incubation, HTRF Phospho-ERK1/2
Experimental: (§2) Compounds were tested in a 384-well assay format for their ability to inhibit cellular pERK in Kuramochi (WT KRAS), MIA-PaCa-2 (KRAS-G12C), ASPC-1 (KRAS G12D), and NCI-H441 (KRAS-G12V) cell-lines. Compounds were serially diluted (1:3) in DMSO. On day −1, 80 μL of cells were plated per well in the 384 well tissue-culture plates (Greiner: Cat #781080) to seed 5000 cells per wells of AsPC-1 or 7500 cells of MIA-PaCa-2, NCI-H441, and Kuramochi cell lines in RPMI (Corning: Cat #10-040-CM) with 10% fetal bovine serum (FBS) (HyClone: Cat #SH30071-03) and IX penicillin-streptomycin-glutamate (PSG) (Corning: Cat #30-009-C1) for […] and Kuramochi cell lines and DMEM (Corning: Cat #15-018-CM) with 10% FBS and 1×PSG for MIA-PaCa-2 cell line. The plates were then incubated overnight at 37° C. and 5% CO2. On day 0, 400 nL of compound/well was added into the cell plates and mixed 5 times by pipetting using a Beckmann Biomek FX. The cell plates were then incubated for 2 hours at 37° C. and 5% CO2. HTRF Advanced Phospho-ERK1/2 (THR202/TYR204) Detection Kits (PerkinElmer: Cat #64AERPEG) were used to prepare the lysis and detection solution according to manufacturer protocol. Following the 2 hour incubation, 70 μL of medium was aspirated from the plates and 10 μL of lysis and detection solution was added to the plates using a Biotek EL406 washer and dispenser. Plates were sealed and stored overnight at room temperature. HTRF ratio (665 nm/615 nm) was read by Envision multimode reader (PerkinElmer) the next day. The TR-FRET ratios were normalized to a positive (saturating concentration of known inhibitor) and negative (DMSO) control and plotted against the log of compound concentration.

[3] = system: cellular pERK in MIA-PaCa-2 (KRAS-G12C) cell-line; assay: Cell based pERK assay, MIA-PaCa-2; conditions: Homo sapiens; MIA-PaCa-2 (KRAS-G12C) cells, 2 hours compound incubation, HTRF Phospho-ERK1/2; read-out: MIAPaCa2 pERK EC50
Experimental: as §2

[4] = system: cellular pERK in NCI-H441 (KRAS-G12V) cell-line; assay: Cell based pERK assay, NCI-H441; conditions: Homo sapiens; NCI-H441 (KRAS-G12V) cells, 2 hours compound incubation, HTRF Phospho-ERK1/2
Experimental: as §2

[5] = system: cellular pERK in ASPC-1 (KRAS G12D) cell-line; assay: Cell based pERK assay, ASPC-1; conditions: Homo sapiens, ASPC1, 2 h, ASPC-1 (KRAS G12D) cells, 2 hours compound incubation, HTRF Phospho-ERK1/2
Experimental: as §2

GDP-loaded KRAS-G12V, sequence (P01116 1-188 isoform P01116-2 G12V): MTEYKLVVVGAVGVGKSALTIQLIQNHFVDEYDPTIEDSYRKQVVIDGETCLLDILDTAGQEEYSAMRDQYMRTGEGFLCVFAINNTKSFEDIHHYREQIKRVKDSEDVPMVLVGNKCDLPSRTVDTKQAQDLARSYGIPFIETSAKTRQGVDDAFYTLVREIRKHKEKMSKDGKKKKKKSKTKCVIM
GDP-loaded KRAS-G12D, sequence (P01116 1-188 isoform P01116-2 G12D): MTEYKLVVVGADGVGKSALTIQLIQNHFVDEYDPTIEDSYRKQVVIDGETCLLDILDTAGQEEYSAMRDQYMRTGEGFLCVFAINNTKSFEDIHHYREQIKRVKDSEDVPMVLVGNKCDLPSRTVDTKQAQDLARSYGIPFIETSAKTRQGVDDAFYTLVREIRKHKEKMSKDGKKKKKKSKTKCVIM
GDP-loaded wild-type KRAS (WT), sequence (P01116 1-188 isoform P01116-2): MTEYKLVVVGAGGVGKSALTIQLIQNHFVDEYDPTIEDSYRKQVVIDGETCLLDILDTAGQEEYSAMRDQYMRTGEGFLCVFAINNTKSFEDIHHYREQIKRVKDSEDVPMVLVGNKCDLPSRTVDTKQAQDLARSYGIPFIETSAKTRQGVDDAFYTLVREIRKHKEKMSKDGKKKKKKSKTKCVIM
GDP-loaded KRAS-G12C, sequence (P01116 1-188 isoform P01116-2 G12C): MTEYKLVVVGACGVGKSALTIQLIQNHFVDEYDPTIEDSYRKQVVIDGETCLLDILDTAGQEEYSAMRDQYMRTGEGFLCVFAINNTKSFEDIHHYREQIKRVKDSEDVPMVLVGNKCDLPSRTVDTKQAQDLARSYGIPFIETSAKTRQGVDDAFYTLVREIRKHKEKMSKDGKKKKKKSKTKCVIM

Compound | IC50 [1] [nM] | IC50 (GDP-loaded KRAS-G12C) [nM] | IC50 (GDP-loaded KRAS-G12V) [nM] | IC50 (GDP-loaded KRAS-G12D) [nM] | EC50 [2] [nM] | EC50 [3] [nM] | EC50 [4] [nM] | EC50 [5] [nM]
Cc1cc(N)nc(-c2c(F)cc3c(N4CC5(F)CCC(F)(C4)N5)nc(OC[C@@]45CCCN4C[C@H](F)C5)nc3c2F)c1C(F)(F)F [Example 6-1, 6-(4-(1,5-difluoro-3,8-diazabicyclo[3.2.1]octan-3-yl)-6,8-difluoro-2-(((2R,7aS)-2-fluorotetrahydro-1H-pyrrolizin-7a(5H)-yl)methoxy)quinazolin-7-yl)-4-methyl-5-(trifluoromethyl)pyridin-2-amine] | > 100 | > 100 | > 100 | > 100 | 48.4 | 350 | 616 | > 1000
Nc1cc2ccc(F)cc2c(-c2c(Cl)cc3c(N4CC5(F)CCC(F)(C4)N5)nc(OC[C@@]45CCCN4C[C@H](F)C5)nc3c2F)n1 [Example 7-2] | > 100 | > 100 | > 100 | > 100 | 524 | > 1000 | > 1000 | > 1000
C#Cc1c(F)ccc2cc(N)cc(-c3ncc4c(N5CC6(F)CCC(F)(C5)N6)nc(OC[C@@]56CCCN5[C@H](COc5cc(C(F)(F)F)ncn5)CC6)nc4c3F)c12 [Example 5-2] | 0.94 | 1.38 | 4.32 | 10.3 | 6.04 | 3.24 | 27.1 | 63.9
Fc1cc2c(N3CC4(F)CCC(F)(C3)N4)nc(OC[C@@]34CCCN3C[C@H](F)C4)nc2c(F)c1-c1csc2ncnc(Cl)c12 [Example 6-2] | > 100 | > 100 | > 100 | > 100 | > 1000 | > 1000 | > 1000 | > 1000
C#Cc1c(F)ccc2cc(N)cc(-c3ncc4c(N5CC6(F)CCC(F)(C5)N6)nc(OCC56CCCN5CCC6)nc4c3F)c12 [Example 5-3] | 6.62 | 6.7 | 26.1 | 42.5 | 11.6 | 15.6 | 278 | 760
N#Cc1c(N)sc2c(F)ccc(-c3c(Cl)cc4c(N5CC6(F)CCC(F)(C5)N6)nc(OC[C@@]56CCCN5C[C@H](F)C6)nc4c3F)c12 [Example 7-3] | 0.63 | 1.7 | 5.09 | 12.6 | 5.2 | 16.8 | 4.82 | 39.7
C#Cc1c(F)ccc2cc(N)cc(-c3c(F)cc4c(N5CC6(F)CCC(F)(C5)N6)nc(OCC56CCCN5CCC6)nc4c3F)c12 [Example 2-10] | 3.67 | 4.22 | 4.17 | 17.4 | 5.34 | 8.62 | 49 | 150
Cc1cc(N)nc(-c2c(Cl)cc3c(N4CC5(F)CCC(F)(C4)N5)nc(OC[C@@]45CCCN4C[C@H](F)C5)nc3c2F)c1C(F)(F)F [Example 7-1] | > 89.2 | > 100 | > 100 | > 100 | 47.5 | 233 | 672 | > 1000
Cc1cc(-c2ncc3c(N4CC5(F)CCC(F)(C4)N5)nc(OC[C@@]45CCCN4C[C@H](F)C5)nc3c2F)c2cccnc2c1N [Example 2-8] | > 100 | > 100 | > 100 | > 100 | > 1000 | > 1000 | > 1000 | > 1000
C#Cc1c(F)ccc2cc(O)cc(-c3ncc4c(N5C[C@]6(F)CC[C@](F)(C5)N6)nc(OC[C@@]56CCCN5C[C@H](F)C6)nc4c3F)c12 [Example 1-1, 4-(4-((1R,5S)-1,5-difluoro-3,8-diazabicyclo[3.2.1]octan-3-yl)-8-fluoro-2-(((2R,7aS)-2-fluorotetrahydro-1H-pyrrolizin-7a(5H)-yl)methoxy)pyrido[4,3-d]pyrimidin-7-yl)-5-ethynyl-6-fluoronaphthalen-2-ol] | 0.08 | 0.1 | 0.11 | 0.14 | 1.19 | 0.16 | 0.83 | 4.11
Cc1cc(-c2c(Cl)cc3c(N4CC5(F)CCC(F)(C4)N5)nc(OC[C@@]45CCCN4C[C@H](F)C5)nc3c2F)c2cccnc2c1N [Example 2-9] | > 100 | > 100 | > 100 | > 100 | > 1000 | > 1000 | > 1000 | > 1000
C#Cc1c(F)ccc2cc(O)cc(-c3ncc4c(N5CC6(F)CCC(F)(C5)N6)nc(OC[C@@]56CCCN5[C@H](COc5cc(C(F)(F)F)cnn5)CC6)nc4c3F)c12 [Example 2-4] | 0.21 | 0.27 | 0.24 | 0.36 | 5.56 | 0.29 | 9.86 | 14.9
C#Cc1c(F)ccc2cc(O)cc(-c3c(Cl)cc4c(N5CC6(F)CCC(F)(C5)N6)nc(OC[C@@]56CCCN5C[C@H](F)C6)nc4c3F)c12 [Example 2-6] | 5.93 | 2.8 | 9.86 | 25.8 | 5.13 | 1.75 | 6.11 | 27.5
Nc1nc2c(-c3c(Cl)cc4c(N5CC6(F)CCC(F)(C5)N6)nc(OC[C@@]56CCCN5C[C@H](F)C6)nc4c3F)ccc(F)c2s1 [Example 7-4] | 14.3 | 42.5 | > 82.3 | > 100 | 13.5 | 42.8 | 118 | 459
